Experiments:
RORγt [1] = molecular target: T1, RORγt (Homo sapiens, UniProt P51449); assay: Cofactor recruitment test (Alpha Screen, biotinylated SRC-1 peptide); assay type: biochemical; details: read-out: signal value inhibitory rate (%) at test compound 1 μM
T1 sequence (P51449 1-497 isoform P51449-2): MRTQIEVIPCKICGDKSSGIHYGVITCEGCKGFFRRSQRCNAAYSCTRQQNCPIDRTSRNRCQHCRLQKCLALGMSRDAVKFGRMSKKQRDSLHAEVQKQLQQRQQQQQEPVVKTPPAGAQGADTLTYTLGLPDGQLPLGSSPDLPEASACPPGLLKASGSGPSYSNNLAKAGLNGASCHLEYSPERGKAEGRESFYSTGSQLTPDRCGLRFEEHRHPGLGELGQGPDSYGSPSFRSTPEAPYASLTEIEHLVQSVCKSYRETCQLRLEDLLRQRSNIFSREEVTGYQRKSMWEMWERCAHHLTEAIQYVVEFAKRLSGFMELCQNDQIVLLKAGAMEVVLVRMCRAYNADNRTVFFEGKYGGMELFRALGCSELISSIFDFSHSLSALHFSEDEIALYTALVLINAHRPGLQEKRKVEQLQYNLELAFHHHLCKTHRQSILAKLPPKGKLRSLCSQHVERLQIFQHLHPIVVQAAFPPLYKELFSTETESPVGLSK
Description: Cofactor Recruitment Test
Cofactor recruitment test was performed by Alpha Screen (Histidine Detection Kit, PerkinElmer) method. First, a test compound was diluted with an assay buffer (50 mM Tris-HCl (pH 7.5), 50 mM KCl, 1 mM DTT, 0.1% BSA) and added to a 384 well plate by 5 μL. […] The mixture was stood in a dark place for 1 hr, and the signal value was measured by Envision (PerkinElmer).

RORγt [2] = molecular target: T1, RORγt; assay: Jurkat reporter test (human IL-17 ROR response element luciferase reporter); assay type: cell-based; details: Jurkat, read-out: luminescence level inhibitory rate (%) at test compound 3 μM
Description: The Jurkat cells used for the reporter test were cultured in a culture medium (RPMI (Invitrogen), 10% FCS (AusGeneX), 100 U/mL penicillin, 100 μg/mL streptomycin). On the day of the test, 4×10^7 cells were recovered by a centrifugal operation (1000 rpm, 5 min.) and suspended in PBS (phosphate buffered saline) (Invitrogen). Thereafter, the cells were recovered again by a centrifugal operation, and suspended in 2 mL of R buffer (NEON transfection kit, Invitrogen). […] Gene transfer was performed by Electroporation apparatus (NEON, Invitrogen) under the conditions of pulse voltage 1350 V, interval 10 milliseconds, number of times 3. The cells after gene transfer were suspended in 40 mL of a reaction medium (RPMI, 10% Lipid reduced FCS (HyClone), 10 mM HEPES (pH 7.5), 100 U/mL penicillin, 100 μg/mL streptomycin, 5 μM lovastatin), and plated in a 96 well plate by 90 μL. A test compound diluted with the reaction medium was added by 10 μL, and the cells were cultured overnight in an incubator. Bright-Glo (Promega) was added by 100 μL, and the mixture was stirred at room temperature for 10 min, and the luminescence level was measured by Envision (PerkinElmer).

RORγt [3] = molecular target: T1, RORγt; assay: RORγt binding test (TR-FRET, fluorescent-labeled cholesterol); details: read-out: binding inhibitory rate (%) of fluorescent-labeled cholesterol to RORγt at test compound 1 μM
Description: The binding activity of the test compound to RORγt was measured by a time resolved fluorescence resonance energy transfer method (TR-FRET) utilizing histidine-tagged RORγt, fluorescent-labeled cholesterol (BODIPY-cholesterol, AVIVA), and terbium-labeled anti-histidine tag antibody (Invitrogen). First, a test compound diluted with an assay buffer (20 mM Tris-HCl (pH 7.5), 100 mM NaCl, 1 mM DTT, 0.1% BSA) was added to a 384 well plate by 3 μL. Then, RORγt diluted with an assay buffer to 240 nM was added by 3 μL, after which fluorescent-labeled cholesterol diluted with the assay buffer to 12 μM was added by 3 μL, and the mixture was stood at room temperature for 20 min. Thereafter, a terbium-labeled anti-histidine tag antibody diluted with the assay buffer to 8 nM was added by 3 μL. The mixture was stood at room temperature for 20 min, and fluorescence intensity (excitation wavelength 320 nm, fluorescence wavelength 520 nm, delay time 100 microseconds) was measured by Envision (PerkinElmer).

| Structure (SMILES) | inhibition at 1 µM (RORγt [1]) | inhibition at 3 µM (RORγt [2]) | inhibition at 1 µM (RORγt [3]) |
| --- | --- | --- | --- |
| COc1ccc(C(NC(=O)N2CC(O)C2)C(=O)Nc2cc(F)c([Si](C)(C)C)c(F)c2)cc1 (stereo not drawn) [Example 41, N-(2-((3,5-difluoro-4-(trimethylsilyl)phenyl)amino)-1-(4-methoxyphenyl)-2-oxoethyl)-3-hydroxyazetidine-1-carboxamide] | 94.4% | 100% | 101% |
| COc1ccc(C(NC(=O)C2CNC(=O)C2)C(=O)Nc2cc(F)c([Si](C)(C)C)cc2F)cc1 (stereo not drawn) [Example 42, N-(2-((2,5-difluoro-4-(trimethylsilyl)phenyl)amino)-1-(4-methoxyphenyl)-2-oxoethyl)-5-oxopyrrolidine-3-carboxamide] | 88.5% | 99.1% | 102% |
| COCc1ccc(C(C(=O)Nc2cc(F)c([Si](C)(C)C)cc2F)N(C)C(=O)c2cc(O)no2)cc1 (stereo not drawn) [Example 43, N-(2-((2,5-difluoro-4-(trimethylsilyl)phenyl)amino)-1-(4-(methoxymethyl)phenyl)-2-oxoethyl)-3-hydroxy-N-methyl-1,2-oxazole-5-carboxamide] | 96.1% | 100% | 102% |
| COCc1ccc(C(NC(=O)Cc2nnc(C)o2)C(=O)Nc2cc(F)c([Si](C)(C)C)cc2F)cc1 (stereo not drawn) [Example 44, N-(2,5-difluoro-4-(trimethylsilyl)phenyl)-2-(4-(methoxymethyl)phenyl)-2-(((5-methyl-1,3,4-oxadiazol-2-yl)acetyl)amino)acetamide] | 95.7% | 102% | 102% |
| COCc1ccc(C(NC(=O)Cn2cnccc2=O)C(=O)Nc2cc(F)c([Si](C)(C)C)cc2F)cc1 (stereo not drawn) [Example 45, N-(2,5-difluoro-4-(trimethylsilyl)phenyl)-2-(4-(methoxymethyl)phenyl)-2-(((6-oxopyrimidin-1(6H)-yl)acetyl)amino)acetamide] | 94.1% | 101% | 102% |
| COc1ccc(C(NC(=O)Cn2ncc3ccccc32)C(=O)Nc2cc(F)c([Si](C)(C)C)cc2F)cc1 (stereo not drawn) [Example 46, N-(2,5-difluoro-4-(trimethylsilyl)phenyl)-2-((1H-indazol-1-ylacetyl)amino)-2-(4-methoxyphenyl)acetamide] | 87.2% | 101% | 99.5% |
| COCc1ccc(C(NC(=O)Cn2ncc3ccccc32)C(=O)Nc2cc(F)c([Si](C)(C)C)cc2F)cc1 (stereo not drawn) [Example 47, N-(2,5-difluoro-4-(trimethylsilyl)phenyl)-2-((1H-indazol-1-ylacetyl)amino)-2-(4-(methoxymethyl)phenyl)acetamide] | 92.4% | 100% | 100% |
| COc1ccc(C(C(=O)Nc2ccc([Si](C)(C)C)c(Cl)c2)N(C)C(=O)c2cc(O)no2)cc1 (stereo not drawn) [Example 48, N-(2-((3-chloro-4-(trimethylsilyl)phenyl)amino)-1-(4-methoxyphenyl)-2-oxoethyl)-3-hydroxy-N-methyl-1,2-oxazole-5-carboxamide] | 73% | 95.7% | 103% |
| COCc1ccc([C@@H](NC(=O)[C@@H]2CNC(=O)C2)C(=O)Nc2ccc([Si](C)(C)C)c(F)c2)cc1 [Example 49, (3S)—N-((1R)-2-((3-fluoro-4-(trimethylsilyl)phenyl)amino)-1-(4-(methoxymethyl)phenyl)-2-oxoethyl)-5-oxopyrrolidine-3-carboxamide] | 96.9% | 98.4% | 101% |
| COc1ccc([C@@H](NC(=O)[C@@H]2CNC(=O)C2)C(=O)Nc2ccc([Si](C)(C)C)c(F)c2)cc1 [Example 50, (3S)—N-((1R)-2-((3-fluoro-4-(trimethylsilyl)phenyl)amino)-1-(4-methoxyphenyl)-2-oxoethyl)-5-oxopyrrolidine-3-carboxamide] | 91.5% | 98% | 102% |
| COCc1ccc([C@@H](NC(=O)[C@@H]2CNC(=O)C2)C(=O)Nc2cc(F)c([Si](C)(C)C)cc2F)cc1 [Example 51, (3S)—N-((1R)-2-((2,5-difluoro-4-(trimethylsilyl)phenyl)amino)-1-(4-(methoxymethyl)phenyl)-2-oxoethyl)-5-oxopyrrolidine-3-carboxamide] | 97.3% | 98% | 102% |
| COCc1ccc([C@@H](NC(=O)[C@@H]2CNC(=O)C2)C(=O)Nc2cc(F)c([Si](C)(C)C)c(F)c2)cc1 [Example 52, (3S)—N-((1R)-2-((3,5-difluoro-4-(trimethylsilyl)phenyl)amino)-1-(4-(methoxymethyl)phenyl)-2-oxoethyl)-5-oxopyrrolidine-3-carboxamide] | 98.7% | 100% | 102% |
| COCc1ccc([C@@H](NC(=O)Cn2cnccc2=O)C(=O)Nc2ccc([Si](C)(C)C)c(F)c2)cc1 [Example 53, (2R)—N-(3-fluoro-4-(trimethylsilyl)phenyl)-2-(4-(methoxymethyl)phenyl)-2-(((6-oxopyrimidin-1(6H)-yl)acetyl)amino)acetamide] | 97.8% | 98.4% | 102% |
| COCc1ccc([C@@H](NC(=O)[C@H]2CNC(=O)C2)C(=O)Nc2ccc([Si](C)(C)C)c(F)c2)cc1 [Example 54, (3R)—N-((1R)-2-((3-fluoro-4-(trimethylsilyl)phenyl)amino)-1-(4-(methoxymethyl)phenyl)-2-oxoethyl)-5-oxopyrrolidine-3-carboxamide] | 95.6% | 99% | 102% |
| COCc1ccc([C@@H](NC(=O)[C@H]2CNC(=O)C2)C(=O)Nc2cc(F)c([Si](C)(C)C)cc2F)cc1 [Example 55, (3R)—N-((1R)-2-((2,5-difluoro-4-(trimethylsilyl)phenyl)amino)-1-(4-(methoxymethyl)phenyl)-2-oxoethyl)-5-oxopyrrolidine-3-carboxamide] | 95.8% | 98.6% | 102% |
| COCc1ccc([C@@H](NC(=O)Cc2nnc(C)o2)C(=O)Nc2cc(F)c([Si](C)(C)C)cc2F)cc1 [Example 56, (2R)—N-(2,5-difluoro-4-(trimethylsilyl)phenyl)-2-(4-(methoxymethyl)phenyl)-2-(((5-methyl-1,3,4-oxadiazol-2-yl)acetyl)amino)acetamide] | 97.7% | 100% | 102% |
| COCc1ccc([C@@H](NC(=O)Cn2cnccc2=O)C(=O)Nc2cc(F)c([Si](C)(C)C)cc2F)cc1 [Example 57, (2R)—N-(2,5-difluoro-4-(trimethylsilyl)phenyl)-2-(4-(methoxymethyl)phenyl)-2-(((6-oxopyrimidin-1(6H)-yl)acetyl)amino)acetamide] | 97.3% | 98.9% | 103% |
| COCc1ccc([C@@H](NC(=O)Cn2cnccc2=O)C(=O)Nc2cc(F)c([Si](C)(C)C)c(F)c2)cc1 [Example 58, (2R)—N-(3,5-difluoro-4-(trimethylsilyl)phenyl)-2-(4-(methoxymethyl)phenyl)-2-(((6-oxopyrimidin-1(6H)-yl)acetyl)amino)acetamide] | 97.1% | 98.4% | 102% |

Reference: US11851449B2, “Heterocyclic amide compounds having an RORvt inhibitory action” (TAKEDA PHARMACEUTICAL COMPANY LIMITED, priority 2013, dated 2023)
